# Source: patent US20240049707A1, “PESTICIDE COMPOSITIONS OF LICOCHALCONE C” (METABOLIC INSIGHTS LTD., priority 2020, published 2024)
# Assays:
# Fusarium oxysporum = experiment: Microplate based screening of bioactivity against Fusarium oxysporum; assay type: cell-based; conditions: 10 μl of 250 ppm solution + 40 μl inoculum, activity grade x repeats x days of activity/252 x 100
# Method: Diluted in DMSO Licochalcone C was added to microplate wells and mixed with freshly prepared spore suspension and growth of the fungus, starting from frozen spores, was monitored using the plate reader and by visual inspection. […]
# Microplate Preparation for Licochalcone C Bioactivity Experiment: • 1) Take a stock solution of purified 1% Licochalcone C in DMSO from the −20 freezer and thaw it on the bench. • 2) Take 1 μl of stock solution of 1% Licochalcone C and dilute up to 250 ppm with 39 μl of water. • 3) Take 10 μl of the diluted (250 ppm) Licochalcone C solution into the wells of the microplate using a multi-pipette. • 4) Add 40 μl of vigorously mixed spore suspension inoculum to the wells of the microplate using a multi-pipette. • 5) Seal the plate with transparent sealer • 6) Shake the plate for 10 min at 2000 RPM to mix the materials with the hyphae suspension • 7) Centrifugate the plate at 1000RCF for is and stop to collect the liquid at the bottom of the plate • 8) Keep the microplate on the bench until it is read by the plate reader • 9) Read the plate using the plate reader • 10) Collect the plates on the bench • 11) Insert collected plates to a plastic box with cloth cover and put the box in the incubator at 25° C. […]
# Sclerotinia sclerotiorum = experiment: Microplate based screening of bioactivity against Sclerotinia sclerotiorum; assay type: cell-based; conditions: 10 μl of 250 ppm solution + 40 μl inoculum, activity grade x repeats x days of activity/252 x 100
# Method: Diluted in DMSO purified Licochalcone C was added to microplate wells and mixed with 50 μl of hyphae suspension and growth of the fungus starting from blended hyphae was monitored by visual inspection. Dilute the inoculum stock 1:10 in PDBC—2 ml in 20 ml, or calculate the dilution needed, to prepare final concentration of 2000 CFU/ml. The final number of hyphae should be 100 CFU in each well. Microplate Preparation for Activity Experiment: • 1) Take a stock solution of purified 1% Licochalcone C in DMSO from the −20 freezer and thaw it on the bench. • 2) Take 1 μl of stock solution of 1% Licochalcone C and dilute up to 250 ppm with 39 μl of water. • 3) Take 10 μl of the diluted (250 ppm) Licochalcone C solution into the wells of the microplate using a multi-pipette. • 4) Add 40 μl of vigorously mixed spore suspension inoculum to the wells of the microplate using a multi-pipette. • 5) Seal the plate with transparent sealer • 6) Shake the plate for 10 min at 2000 RPM to mix the Licochalcone C with the hyphae suspension • 7) Centrifugate the plate at 1000RCF for is and stop to collect the liquid at the bottom of the plate. • 8) Collect the plates on the bench until all microplates are ready for incubation. • 9) Insert microplates into a plastic box and put the box in the incubator at 21° C. […]
structure (smiles),measurement,setting,value
"COc1c(/C=C/C(=O)c2ccc(O)cc2)ccc(O)c1CC=C(C)C [Licochalcone C, (E)-3-[4-hydroxy-2-methoxy-3-(3-methylbut-2-enyl)phenyl]-1-(4-hydroxyphenyl)prop-2-en-1-one]",Relative Activity value (%),Fusarium oxysporum,25%
same,Relative Activity value (%),Sclerotinia sclerotiorum,13%
